# Test results from ChEMBL document CHEMBL1201862, “PubChem BioAssay data set” (2004).
#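 Values below derive from 48-hour exposures of cells grown in 96-well plates, with endpoints linearly interpolated between the two concentrations bracketing the appropriate inhibition level. GI50 = concentration required for 50% inhibition of growth.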 The source made the active and inactive calls. Rule as the data show it: active = GI50 up to about 1.1 µM and inactive = higher.
# Legend:
# Assay in all cases: inhibition of tumour cell growth, NCI panel, 48 h
# A498 = system: A498
# KM12 = system: KM12
# SR = system: SR
# M14 = system: M14
# HT-29 = system: HT-29
# HOP-92 = system: HOP-92
# NCI-H226 = system: NCI-H226
# K562 = system: K562
# RXF 393 = system: RXF 393
# MCF7 = system: MCF7
# HCT-116 = system: HCT-116
# Malme-3M = system: Malme-3M
# HCC 2998 = system: HCC 2998
# A549 = system: A549
# SF-268 = system: SF-268
# Hs-578T = system: Hs-578T
# UO-31 = system: UO-31
# NCI/ADR-RES = system: NCI/ADR-RES
# MOLT-4 = system: MOLT-4
# RPMI-8226 = system: RPMI-8226
# SN12C = system: SN12C
# IGROV-1 = system: IGROV-1
# SNB-19 = system: SNB-19
# HOP-62 = system: HOP-62
# DU-145 = system: DU-145
# SF-295 = system: SF-295
# CCRF-CEM = system: CCRF-CEM
# SK-MEL-2 = system: SK-MEL-2
# SNB-75 = system: SNB-75
# ACHN = system: ACHN
# MDA-MB-231 = system: MDA-MB-231
# BT-549 = system: BT-549
# UACC-257 = system: UACC-257
# SK-MEL-28 = system: SK-MEL-28
# TK-10 = system: TK-10
# NCI-H522 = system: NCI-H522
# NCI-H23 = system: NCI-H23
# OVCAR-8 = system: OVCAR-8
# LOX IMVI = system: LOX IMVI
# PC-3 = system: PC-3
# OVCAR-3 = system: OVCAR-3
# U-251 = system: U-251
# HL-60 = system: HL-60
# UACC-62 = system: UACC-62
# MDA-MB-435 = system: MDA-MB-435
# OVCAR-4 = system: OVCAR-4
# COLO 205 = system: COLO 205
# SW-620 = system: SW-620
# NCI-H460 = system: NCI-H460
# EKVX = system: EKVX
# SK-MEL-5 = system: SK-MEL-5
# MDA-N = system: MDA-N
# OVCAR-5 = system: OVCAR-5
# HCT-15 = system: HCT-15
# T47D = system: T47D
# SK-OV-3 = system: SK-OV-3
# 786-0 = system: 786-0
# CAKI-1 = system: CAKI-1
# SF-539 = system: SF-539
compound,measurement,setting,value
CC(C)NC(=O)OCc1c(COC(=O)NC(C)C)c(-c2cc[n+](COC(=O)Cc3ccccc3)cc2)n2c1CCC2,GI50,A498,> 100 µM (inactive)
same,GI50,KM12,> 100 µM (inactive)
same,GI50,SR,9.59 µM (inactive)
same,GI50,M14,> 100 µM (inactive)
same,GI50,HT-29,> 100 µM (inactive)
same,GI50,HOP-92,> 100 µM (inactive)
same,GI50,NCI-H226,> 100 µM (inactive)
same,GI50,K562,> 100 µM (inactive)
same,GI50,RXF 393,> 100 µM (inactive)
same,GI50,MCF7,67.5 µM (inactive)
same,GI50,HCT-116,> 100 µM (inactive)
same,GI50,Malme-3M,> 100 µM (inactive)
same,GI50,HCC 2998,> 100 µM (inactive)
same,GI50,A549,> 100 µM (inactive)
same,GI50,SF-268,55.1 µM (inactive)
same,GI50,Hs-578T,> 100 µM (inactive)
same,GI50,UO-31,> 100 µM (inactive)
same,GI50,NCI/ADR-RES,> 100 µM (inactive)
same,GI50,MOLT-4,47.8 µM (inactive)
same,GI50,RPMI-8226,> 100 µM (inactive)
same,GI50,SN12C,> 100 µM (inactive)
same,GI50,IGROV-1,> 100 µM (inactive)
same,GI50,SNB-19,> 100 µM (inactive)
same,GI50,HOP-62,72.9 µM (inactive)
same,GI50,DU-145,> 100 µM (inactive)
same,GI50,SF-295,92 µM (inactive)
same,GI50,CCRF-CEM,38.5 µM (inactive)
same,GI50,SK-MEL-2,> 100 µM (inactive)
same,GI50,SNB-75,54.6 µM (inactive)
same,GI50,ACHN,40.5 µM (inactive)
same,GI50,MDA-MB-231,> 100 µM (inactive)
same,GI50,BT-549,> 100 µM (inactive)
same,GI50,UACC-257,> 100 µM (inactive)
same,GI50,SK-MEL-28,> 100 µM (inactive)
same,GI50,TK-10,> 100 µM (inactive)
same,GI50,NCI-H522,> 100 µM (inactive)
same,GI50,NCI-H23,56.6 µM (inactive)
same,GI50,OVCAR-8,> 100 µM (inactive)
same,GI50,LOX IMVI,> 100 µM (inactive)
same,GI50,PC-3,> 100 µM (inactive)
same,GI50,OVCAR-3,> 100 µM (inactive)
same,GI50,U-251,> 100 µM (inactive)
same,GI50,HL-60,31.9 µM (inactive)
same,GI50,UACC-62,56.2 µM (inactive)
same,GI50,MDA-MB-435,> 100 µM (inactive)
same,GI50,OVCAR-4,> 100 µM (inactive)
same,GI50,COLO 205,> 100 µM (inactive)
same,GI50,SW-620,> 100 µM (inactive)
same,GI50,NCI-H460,52 µM (inactive)
same,GI50,EKVX,> 100 µM (inactive)
same,GI50,SK-MEL-5,> 100 µM (inactive)
same,GI50,MDA-N,> 100 µM (inactive)
same,GI50,OVCAR-5,> 100 µM (inactive)
same,GI50,HCT-15,> 100 µM
same,GI50,T47D,> 100 µM (inactive)
same,GI50,SK-OV-3,> 100 µM (inactive)
same,GI50,786-0,46 µM (inactive)
same,GI50,CAKI-1,37.8 µM (inactive)
same,GI50,SF-539,> 100 µM (inactive)
